Entries after “also recorded” stand apart in the source; their conditions may differ.
Key:
PI(3)K/Akt/mTOR pathway = assay: PI(3)K/Akt/mTOR and ERK signalling in C2C12 differentiated myotubes (immunoblot, kinase assay); type: cell-based; details: for phosphorylation of downstream targets of the PI(3)K/Akt/mTOR pathway (Akt, p70S6K, GSK3, PHAS-1/4E-BP1): IGF-1 10 ng ml-1 or Ca-I 1.0 μM, 15 min
From the text: (§1) As a first step towards examining the roles of the calcineurin/NFAT and PI(3)K/Akt pathways during IGF-induced myotube hypertrophy, we added IGF-1 to differentiated myotubes and determined whether these pathways were activated. Calcineurin is a protein phosphatase that is activated by increases in intracellular calcium levels, which in turn dephosphorylates the NFAT transcription factors; this dephosphorylation results in the translocation of NFATs to the nucleus and subsequent gene transcription. NFAT dephosphorylation and nuclear translocation are therefore markers of calcineurin activation (FIG. 7, right). For markers of activation of the PI(3)K/Akt pathway, the phosphorylation of Akt itself or of downstream targets such as p70S6 kinase (p70S6K), PHAS-1/4E-BP1 or GSK3 were used (FIG. 7).
(§2) Protein analysis of total cell lysates was conducted as described8. The antibodies used were anti-phospho-Erk1/2 (Thr 202/Tyr 204; NEB); anti-phospho-Akt (Ser 473; NEB); anti-phospho- GSK3 (Ser 9/21; NEB); anti-phospho-p70S6K (Thr 389; NEB); anti-phospho-PHAS-1/4E-BP1 (Thr 65; NEB); anti-Erk1/2 (UBI), anti-Akt (NEB), anti-p70S6K (C-18; Santa Cruz), anti-PHAS-1/4EBP1 (Zymed) and anti-NFAT-C1 (7A6; Santa Cruz).
(§3) Immunoprecipitations and immunoblotting were performed as described. Proteins were detected with the chemiluminescence detection system Renaissance; NEN). To measure the enzymatic activity of p70S6K an immunocomplex kinase assay was performed as described (Azpiazu, I., Saltiel, A. R., DePaoli-Roach, A. A. & Lawrence, J. C. J. Biol. Chem. 271, 5033-5039 (1996)).

C2C12 myotubes = assay: C2C12 myotube hypertrophy (myotube diameter); type: cell-based; details: LY294002 10 μM; for IGF-1-induced myotube hypertrophy: D2 myotubes, IGF-1 10 ng ml-1 plus CsA 5 μM, rapamycin 2 ng ml-1, PD98059 or Ara-C 10 μM; for myotube size / hypertrophy, agent alone: D2 myotubes treated at day 2 after fusion, analysed day 4, IGF-1 10 ng ml-1, CsA 5 μM, Ca-I 1 μM
Description: FIG. 9. […] Myotubes were treated at day 2 after fusion with the PI(3)K inhibitor LY294002 (LY; 10 μM), the mTOR inhibitor rapamycin (RAP, 2 ng ml-1), IGF-1 (10 ng ml-1) and with a combination of IGF-1 and each inhibitor, and analyzed for morphological effects at day 4. […] C2C12 myotubes were treated at day 2 after induction of differentiation with IGF-1 (10 ng ml-1) or a combination of Ara-C (10 μM) and IGF-1 (10 ng ml-1), and analysed the next day. Untreated myotubes are shown (CON). […] Quantification of myotube diameters is shown. The average number of nuclei per myotube is presented for each condition in the bottom row.
To distinguish between effects on myoblast differentiation and those on the trophic state of existing myofibres, we exploited the C2C12 myoblast differentiation system. C2C12 myoblasts proliferate until they reach confluence; then, in serum-poor medium, the myoblasts fuse into multi-nucleated myotubes. Differentiated myotubes are predominant by 2 days after fusion (D2 myotubes) and survive for another 3 days. […] IGF-1-induced myotube hypertrophy, as measured by an increase in diameter and an increase in total protein, is normally accompanied by an increase in nuclei within the myofibres.
To obtain more direct evidence, we next used the pharmacological inhibitors of the calcineurin and PI(3)K/Akt pathways in assays of IGF-1-induced myotube hypertrophy. Further, we introduced gene-expression vectors into the myotubes that induced the expression of either activators or dominant-negative blockers of these pathways.
C2C12 myoblasts were cultured and transfected as described (Glass, D. J. et al. Cold Spring Harb. Symp. Quant. Biol. 57, 53-62 (1992)). Flow cytometry and cell sorting were performed on a Cytomation MoFlo (Fort Collins, Colorado) high-speed cell sorter (FACS) (Rommel, C. et al. Science 286, 1738-1741 (1999)). Myoblasts were fused into myotubes at confluence, by shifting the medium to DMEM+2% horse serum. Myotube diameter was quantified as follows: 10 fields were chosen randomly, and approximately 10 myotubes were measured per field. The average diameter per myotube was calculated as the mean of ten measurements taken along the length of the myotube. For the constitutively active Akt, kinaseinactive Akt, wild-type Akt, wild-type SHIP2, dominant-negative SHIP2, constitutively active p70S6K and dominant-negative GSK3β constructs, transfected myotubes were determined by the co-expression of enhanced green fluorescent protein (EGFP; see below for construct details); thus, only transfected myotubes were assessed for hypertrophy. For the tetracycline-inducible calcineurin, myotubes expressing calcineurin were identified by EGFP expression, and comparisons were made between EGFP-positive and EGFP-negative myotubes. […]

calcineurin/NFAT-C1 = assay: NFAT-C1 phosphorylation and translocation in C2C12 differentiated myotubes (immunoblot); type: cell-based; details: for NFAT-C1 phosphorylation state and nuclear translocation: IGF-1 10 ng ml-1 or Ca-I 1.0 μM, 15 min
From the text: as §1, §2, §3

rat plantaris muscle = assay: Compensatory hypertrophy of the plantaris after surgical overload; type: in vivo
Description: Female Sprague-Dawley rats (250-275 g) were anaesthetized with ketamine/xylazine (50/10 mg kg-1, intraperitoneally); with the use of aseptic surgical techniques the soleus, medial gastrocnemius and lateral gastrocnemius muscles were removed bilaterally, producing a functional overload on the plantaris muscles. In some instances, plasmid DNA (100 μl) was injected into the muscle immediately after the procedure. The hindlimbs of adult female SD rats (225-250 g) were unloaded by suspending their tails with a tail-traction bandage as described29. At the appropriate times, rats were killed and hindlimb muscles were removed, weighed and frozen in isopentane cooled with liquid nitrogen. Weight-matched surgically untreated rats served as controls.
Transfection in vivo. Constructs used encoded the following: (1) myristoylated, c.a. […]
Muscle fibre size was obtained from digitally imaged serial cross-sections of cryostat-sectioned muscle. Individual muscle fibres were outlined and cross-sectional area was determined with a computerassisted image analysis system (MetaMorph™; Universal Imaging Corporation). All data are expressed as means ±s.e.m. […]

[1] = Rapamycin given to control (surgically untreated) adult animals; type: in vivo, rat; details: rapamycin for 14 days, data not shown
From the text: The above findings indicate that the Akt pathway and its downstream targets are activated during muscle hypertrophy in vivo. To begin to determine the role of these activations, we used treatment in vivo with rapamycin, a quite specific inhibitor of one important Akt target, mTOR. Rapamycin, a selective blocker of mTOR, blocked hypertrophy in all models without causing atrophy in control muscles Rapamycin binds to its intracellular receptor, forming a complex that then binds to and inhibits mTOR activity (Schmeizie, T. & Hall, M. N. Cell 103, 253-262 (2000).). […] Treatment with rapamycin produced no non-specific effects; that is, there was no effect on body weight or the baseline weight of non-overloaded hindlimb muscles in these animals. Further, rapamycin given to control (surgically untreated) adult animals for 14 days had no effect on body weight or muscle weight (data not shown). In addition to the above results from rats, similar results were obtained when this hypertrophy model was performed in mice (data not shown).

Compound	IGF-1-induced myotube hypertrophy (C2C12 myotubes)	phosphorylation of downstream targets of the PI(3)K/Akt/mTOR pathway (Akt, p70S6K, GSK3, PHAS-1/4E-BP1) (PI(3)K/Akt/mTOR pathway)	myotube size / hypertrophy, agent alone (C2C12 myotubes)	NFAT-C1 phosphorylation state and nuclear translocation (calcineurin/NFAT-C1)	other results
COc1cccc(-c2cc(=O)c3ccccc3o2)c1N [PD98059]	did not block phenotypic hypertrophy				IGF-1-induced Akt / PI(3)K/Akt pathway activation (PI(3)K/Akt/mTOR pathway; IGF-1 10 ng ml-1 15 min, CsA 5 μM, LY294002 10 μM, rapamycin 2 ng ml-1, PD98059): without affecting steps in the PI(3)K/Akt/mTOR pathway; IGF-1-induced ERK activation (PI(3)K/Akt/mTOR pathway; IGF-1 10 ng ml-1 15 min, LY294002 10 μM, PD98059 10 μM): did indeed block ERK activation
CNc1ccc2oc(C[C@H]3O[C@@]4(CC[C@H]3C)O[C@H]([C@H](C)C(=O)c3ccc[nH]3)[C@H](C)C[C@H]4C)nc2c1C(=O)O [calcium ionophore, A23187]		none could be induced	thinner myotubes	dephosphorylation-induced downshift in NFAT	phosphorylation of downstream targets of the PI(3)K/Akt/mTOR pathway (Akt, p70S6K, GSK3, PHAS-1/4E-BP1) (PI(3)K/Akt/mTOR pathway; listed as Ca-I): had no effect on these kinases
CO[C@H]1C[C@@H]2CC[C@@H](C)[C@@](O)(O2)C(=O)C(=O)N2CCCC[C@H]2C(=O)O[C@H]([C@H](C)C[C@@H]2CC[C@@H](O)[C@H](OC)C2)CC(=O)[C@H](C)/C=C(\C)[C@@H](O)[C@@H](OC)C(=O)[C@H](C)C[C@H](C)/C=C/C=C/C=C/1C [rapamycin]					blockage of hypertrophy (rat plantaris muscle; adaptive hypertrophy in adult animals, rapamycin): 95%; body weight or baseline weight of non-overloaded hindlimb muscles (rat plantaris muscle; overloaded rats treated with rapamycin 1.5 mg kg-1 i.p. daily): no effect; body weight or muscle weight [1]: had no effect
IGF-1		induced the phosphorylation	resulting in hypertrophy	hyperphosphorylation of NFAT	calcium-ionophore-induced dephosphorylation and translocation of NFAT-C1 (calcineurin/NFAT-C1; Ca-I 1.0 μM, CsA 5 μM before stimulation or IGF-1 10 ng ml-1 simultaneously): blunted
cytosine-β-D-arabinofuranoside [Ara-C]	myotube diameter and total protein still increase; also recorded: does not inhibit IGF-1-mediated hypertrophy				
